Test results reported in PMC4666608, “Metabolic Profiling of Chicken Embryos Exposed to Perfluorooctanoic Acid (PFOA) and Agonists to Peroxisome Proliferator-Activated Receptors” (PLoS ONE, 2015).
Marks after values point to notes of the source that are not given here.

Tested on: chicken embryos
Test: Metabolic profiling of allantoic fluid (GC-MS, LC-MS, OPLS-DA)
Type: in vivo, Gallus gallus domesticus
Conditions: 150 μg/egg
Protocol: Controls were injected with 20 μL vehicle only (DMSO).
Plasma was collected and stored at -70°C.
Metabolites in allantoic fluid and blood plasma were analyzed using gas chromatography-mass spectrometry (GC-MS) and liquid chromatography-mass spectrometry (LC-MS) as described in S1 Methods. Prior to GC-MS and LC-MS analysis, allantoic fluid (100 μL) and blood plasma (50 μL) were extracted. To each sample, 900 μL (allantoic fluid) or 450 μL (blood plasma) of extraction buffer (90/10 v/v methanol:water) including all internal standards were added. Standards for GC-MS were proline, succinic acid, glutamic acid, salicylic acid, alpha-ketoglutarate, putrescine, myristic acid, hexadecanoic acid, cholesterol, and sucrose. Standards for LC-MS were Val-Tyr-Val, Leu-enkephalin, sulfadimethoxine and reserpine. Samples were homogenized by shaking in a bead mill at a frequency of 30 Hz for 3 minutes and proteins were precipitated at +4°C on ice. The samples were centrifuged at +4°C, 14000 rpm, for 10 min. Then, 200 μL supernatant was transferred to a GC microvial and 200 μL was transferred to an LC microvial, and solvents were evaporated. Samples from the four replicate experiments were analyzed using in chronological order and within each replicate experiment the run order of the individual samples was randomized.
Multivariate statistical analyses of metabolite profiles were performed using the software package SIMCA-P version 13.0 (Umetrics, Umeå, Sweden). Data was centered and scaled to variance 1 (UV scaling) prior to modelling. To reduce unintended systematic variation caused by sample processing and instrument drift, GC-MS and LC-MS metabolite amounts (expressed as the area under the chromatographic peak) were normalized by Orthogonal Partial Least Squares analysis (O2PLS) prior to multivariate data analysis. O2PLS finds common (predictive) and unique (orthogonal) variation in two data matrices. If applied to find the common variation between the data matrix containing the measured metabolite concentrations and a matrix containing only the internal standards, the only common (predictive) variation expected is due to the unintended systematic variation. By deleting the contribution of the predictive latent variables, that variation can be removed from the data. Models obtained after this normalization contain in general less latent variables, and this simplification helps when deciding on the number of latent variables to be used. Following normalization, GC-MS and LC-MS data were analyzed together. Initially, a global Principal Component Analysis (PCA) was performed to get an overview of groups and trends and to identify outliers. Projections to latent structures by means of Orthogonal Partial Least Squares Discriminant Analysis (OPLS-DA) was used to model the relationship between the X-matrix (metabolite concentrations) and the Y matrix (class, i.e. exposure group or sex), and to find x-variables that were related to class belonging. OPLS-DA is a supervised prediction and regression method that rotates the projection plane to find the maximum covariance between the data and the class assignment. All groups were first analyzed together in a 5-class OPLS-DA and then each exposure group was analyzed against the control group in a 2-class OPLS-DA. Sex differences were analyzed both using the whole data set and in each group separately using 2-class OPLS-DA, with females and males as the two classes. Only variables with 80% or more nonzero values were included in the statistical models. […] The validity of each model was also checked using CV-ANOVA (ANOVA of the cross-validated residuals). A significance level of p < 0.05 was used. For each model, R ^2 X, R ^2 Y and Q ^2 values were calculated, where R ^2 X is a measure of the fraction of x variation modeled in the extracted latent variables, R ^2 Y is a measure of the fraction of y variation modeled and Q ^2 is an estimate of the predictive ability of the model and is calculated by cross-validation. […]

[1] = GC, tentative 2-Oxovaleric acid

## CC(C)(Sc1ccc(CCN(CCCCC2CCCCC2)C(=O)NC2CCCCC2)cc1)C(=O)O [GW7647, reference compound]
GC
  Mean concentration relative to control, feature Win004_C08: 1.3***
  Mean concentration relative to control, feature Win005_C07: 1.4***
  Mean concentration relative to control, feature Win008_C06: 2.7***
  Mean concentration relative to control, feature Win022_C01: 2.3***
  Mean concentration relative to control, feature Win023_C06: 2.8***
  Mean concentration relative to control, feature win006_C01: 2.4***
GC, tentative 1-Aminocyclopropanecarboxylic acid
  Mean concentration relative to control, feature Win008_C07: 1.4***
GC, tentative 2-Oxoglutaric acid
  Mean concentration relative to control, feature Win023_C03: 2.5***
[1]
  Mean concentration relative to control, feature Win007_C09: 1.5***
  Mean concentration relative to control, feature Win008_C05: 1.6***
GC, tentative 3-Amino-2-piperidone
  Mean concentration relative to control, feature Win018_C04: 1.4***
GC, tentative 3-Hydroxybutanoic acid
  Mean concentration relative to control, feature Win007_C03: 1.3***
GC, tentative Cystathionine
  Mean concentration relative to control, feature Win042_C02: 2.1***
GC, tentative Ketoleucine
  Mean concentration relative to control, feature Win009_C03: 1.5***
GC, tentative Malonic acid
  Mean concentration relative to control, feature Win008_C04: 1.3***
GC, tentative Oxalic acid
  Mean concentration relative to control, feature Win005_C03: 0.8*
GC, tentative Succinic acid
  Mean concentration relative to control, feature Win013_C05: 1.3***
LC
  Mean concentration relative to control, feature 134.0239@1.1350567: 1.6*
  Mean concentration relative to control, feature 145.0538@3.072527: 1.8***
  Mean concentration relative to control, feature 147.0328@3.0722888: 1.7***
  Mean concentration relative to control, feature 160.0323@1.1950632: 1.1*
  Mean concentration relative to control, feature 173.0488@3.0734746: 1.8***
  Mean concentration relative to control, feature 176.0952@1.3890611: 0.6
  Mean concentration relative to control, feature 178.0428@1.7582192: 1.1
  Mean concentration relative to control, feature 180.0048@4.421465: 1.0
  Mean concentration relative to control, feature 189.1159@1.9209185: 0.8*
  Mean concentration relative to control, feature 197.0639@2.1181405: 1.2***
  Mean concentration relative to control, feature 201.012@3.046474: 1.5***
  Mean concentration relative to control, feature 202.0429@2.9548414: 1.1
  Mean concentration relative to control, feature 205.0533@4.421879: 1.0
  Mean concentration relative to control, feature 214.016@2.1190732: 1.3***
  Mean concentration relative to control, feature 226.0107@4.421457: 1.0
  Mean concentration relative to control, feature 236.0816@3.0720985: 1.7***
  Mean concentration relative to control, feature 241.0551@2.3510706: 1.2*
  Mean concentration relative to control, feature 243.1118@2.1537287: 1.0
  Mean concentration relative to control, feature 244.9972@4.421603: 1.0
  Mean concentration relative to control, feature 245.1563@2.2907295: 0.8*
  Mean concentration relative to control, feature 250.0981@3.072492: 1.8***
  Mean concentration relative to control, feature 262.0978@2.7961144: 2.6***
  Mean concentration relative to control, feature 263.0855@2.2847009: 2.1***
  Mean concentration relative to control, feature 270.0441@1.1407775: 0.9
  Mean concentration relative to control, feature 278.0928@3.0723689: 1.8***
  Mean concentration relative to control, feature 279.1248@2.796395: 3.2***
  Mean concentration relative to control, feature 280.1425@2.730277: 1.0
  Mean concentration relative to control, feature 288.1166@2.9551322: 1.2
  Mean concentration relative to control, feature 289.1012@3.249983: 1.8***
  Mean concentration relative to control, feature 289.173@7.5030584: 0.9
  Mean concentration relative to control, feature 294.1242@2.3692534: 1.0
  Mean concentration relative to control, feature 302.0508@3.0722616: 1.6***
  Mean concentration relative to control, feature 305.1682@5.353517: 1.7***
  Mean concentration relative to control, feature 305.1684@5.2955093: 1.6***
  Mean concentration relative to control, feature 308.073@4.4211636: 1.0
  Mean concentration relative to control, feature 310.1181@1.5090439: 1.1
  Mean concentration relative to control, feature 316.0389@3.0725708: 1.5***
  Mean concentration relative to control, feature 320.0626@3.0729218: 1.5***
  Mean concentration relative to control, feature 325.1114@2.1190624: 1.5***
  Mean concentration relative to control, feature 325.1115@2.3554378: 1.3*
  Mean concentration relative to control, feature 333.1335@2.8639288: 0.9
  Mean concentration relative to control, feature 333.2005@6.5291867: 1.3*
  Mean concentration relative to control, feature 335.1866@4.508565: 0.4***
  Mean concentration relative to control, feature 337.1651@1.8737898: 1.4***
  Mean concentration relative to control, feature 344.1424@2.348947: 1.3
  Mean concentration relative to control, feature 348.0553@3.0730357: 1.5***
  Mean concentration relative to control, feature 349.1651@2.4087605: 0.6***
  Mean concentration relative to control, feature 357.1997@6.9691257: 1.1
  Mean concentration relative to control, feature 371.1513@3.0009465: 1.2
  Mean concentration relative to control, feature 375.1819@3.672254: 0.6***
  Mean concentration relative to control, feature 394.167@3.9552917: 0.5***
  Mean concentration relative to control, feature 414.1482@2.118972: 1.5***
  Mean concentration relative to control, feature 466.0837@2.1187525: 1.5***
  Mean concentration relative to control, feature 488.0753@4.419585: 1.0
  Mean concentration relative to control, feature 498.1003@2.1184251: 1.4***
  Mean concentration relative to control, feature 507.1682@2.1238236: 1.4***
  Mean concentration relative to control, feature 580.1426@3.0726147: 2.3***
  Mean concentration relative to control, feature 582.1578@2.1747615: 1.7***
  Mean concentration relative to control, feature 588.1751@2.1182237: 1.5***
  Mean concentration relative to control, feature 594.1337@3.0724604: 2.3***
  Mean concentration relative to control, feature 604.1486@2.1174603: 1.5***
  Mean concentration relative to control, feature 623.183@2.1249466: 1.8***
  Mean concentration relative to control, feature 668.2625@6.4379454: 1.03*
LC, suggested C3H10NO4P
  Mean concentration relative to control, feature 155.0353@0.6447272: 0.6
LC, suggested C10H12N5O7P
  Mean concentration relative to control, feature 345.0497@1.1234403: 1.3*
LC, suggested C13H11N3O4S2
  Mean concentration relative to control, feature 337.0259@4.4213357: 1.0
LC, suggested C13H20N4O7
  Mean concentration relative to control, feature 344.1427@2.1164653: 1.5***
LC, suggested C13H25N5O5
  Mean concentration relative to control, feature 331.184@6.373359: 1.3*
LC, suggested C16H31N3O4S
  Mean concentration relative to control, feature 361.2026@5.6644735: 0.5***
